Measured values published in ChEMBL document CHEMBL5724914, “Linking interpersonal differences in gut microbiota composition and drug biotransformation activity” (2024).

Tests used:
[1] = (§1) The drug is tested on Z-024 corresponding to pig gut metagenome with ENA study accession number: PRJEB37062 and ENA sample accession number: ERS12561823 for biotransformation under anaerobic condition. The drug concentrations were measured over 9 timepoints collected between 0 and 24 hours of incubation by liquid-chromatography-coupled mass spectrometry (LC–MS); conditions: 2 µM
[2] = as §1, with “Z-014” for “Z-024”, “rat” for “pig”, “ERS12561814” for “ERS12561823”; conditions: 2 µM
[3] = as §1, with “Z-012” for “Z-024”, “to” for “to pig gut”, “ERS12561812” for “ERS12561823”; conditions: 2 µM
[4] = as §1, with “Z-009” for “Z-024”, “ERS12561809” for “ERS12561823”; conditions: 2 µM
[5] = as §1, with “Z-006” for “Z-024”, “mouse” for “pig”, “ERS12561806” for “ERS12561823”; conditions: 2 µM
[6] = as §1, with “Z-005” for “Z-024”, “to” for “to pig gut”, “ERS12561805” for “ERS12561823”; conditions: 2 µM
[7] = as §1, with “Z-004” for “Z-024”, “to” for “to pig gut”, “ERS12561804” for “ERS12561823”; conditions: 2 µM
[8] = as §1, with “Z-002” for “Z-024”, “rabbit” for “pig”, “ERS12561802” for “ERS12561823”; conditions: 2 µM
[9] = as §1, with “WLS-350” for “Z-024”, “human” for “pig”, “ERS12561789” for “ERS12561823”; conditions: 2 µM
[10] = as §1, with “WLS-310” for “Z-024”, “human” for “pig”, “ERS12561785” for “ERS12561823”; conditions: 2 µM
[11] = as §1, with “WLS-086” for “Z-024”, “human” for “pig”, “ERS12561752” for “ERS12561823”; conditions: 2 µM
[12] = human gut metagenome, 24 h, 2 µM
[13] = human gut metagenome, 24 h, 2 µM; remark: listed apart in the source
[14] = human gut metagenome, 24 h, 2 µM; remark: listed apart in the source
[15] = human gut metagenome, 24 h, 2 µM; remark: listed apart in the source
[16] = human gut metagenome, 24 h, 2 µM; remark: listed apart in the source
[17] = human gut metagenome, 24 h, 2 µM; remark: listed apart in the source
[18] = human gut metagenome, 24 h, 2 µM; remark: listed apart in the source
[19] = human gut metagenome, 24 h, 2 µM; remark: listed apart in the source
[20] = human gut metagenome, 24 h, 2 µM; remark: listed apart in the source
Note: call rule not given here.

Row | SMILES | Bacterial Biotransformation [1] | Bacterial Biotransformation [2] | Bacterial Biotransformation [3] | Bacterial Biotransformation [4] | Bacterial Biotransformation [5] | Bacterial Biotransformation [6] | Bacterial Biotransformation [7] | Bacterial Biotransformation [8] | Bacterial Biotransformation [9] | Bacterial Biotransformation [10] | Bacterial Biotransformation [11] | Bacterial Biotransformation [12] | Bacterial Biotransformation [13] | Bacterial Biotransformation [14] | Bacterial Biotransformation [15] | Bacterial Biotransformation [16] | Bacterial Biotransformation [17] | Bacterial Biotransformation [18] | Bacterial Biotransformation [19] | Bacterial Biotransformation [20]
1 | COc1ccnc(C[S+]([O-])c2nc3ccc(OC(F)F)cc3[nH]2)c1OC (stereo not given) [PANTOPRAZOLE] | Compound metabolized | Compound NOT metabolized | Compound metabolized | Compound NOT metabolized | Compound metabolized | Compound NOT metabolized | Compound metabolized | Compound NOT metabolized | Compound metabolized | Compound metabolized | Compound metabolized | Compound metabolized | Compound metabolized | Compound metabolized | Compound metabolized | Compound metabolized | Compound metabolized | Compound metabolized | Compound metabolized | Compound metabolized
2 | O=C1N=C([O-])NC1(c1ccccc1)c1ccccc1.[Na+] [PHENYTOIN SODIUM] | Compound NOT metabolized | Compound NOT metabolized | Compound NOT metabolized | Compound NOT metabolized | Compound NOT metabolized | Compound NOT metabolized | Compound NOT metabolized | Compound NOT metabolized | Compound metabolized | Compound metabolized | Compound metabolized | Compound NOT metabolized | Compound metabolized | Compound metabolized | Compound metabolized | Compound NOT metabolized | Compound NOT metabolized | Compound metabolized | Compound NOT metabolized | Compound NOT metabolized
3 | CN(CCOc1ccc(CC2SC(=O)NC2=O)cc1)c1ccccn1.O=C(O)/C=C\C(=O)O (stereo not given) [ROSIGLITAZONE MALEATE] | Compound NOT metabolized | Compound NOT metabolized | Compound NOT metabolized | Compound NOT metabolized | Compound NOT metabolized | Compound NOT metabolized | Compound NOT metabolized | Compound NOT metabolized | Compound metabolized | Compound metabolized | Compound NOT metabolized | Compound NOT metabolized | Compound metabolized | Compound NOT metabolized | Compound metabolized | Compound metabolized | Compound metabolized | Compound metabolized | Compound NOT metabolized | Compound NOT metabolized
4 | CC(C)c1nc(N(C)S(C)(=O)=O)nc(-c2ccc(F)cc2)c1/C=C/[C@@H](O)C[C@@H](O)CC(=O)[O-].CC(C)c1nc(N(C)S(C)(=O)=O)nc(-c2ccc(F)cc2)c1/C=C/[C@@H](O)C[C@@H](O)CC(=O)[O-].[Ca+2] [ROSUVASTATIN CALCIUM] | Compound NOT metabolized | Compound NOT metabolized | Compound NOT metabolized | Compound NOT metabolized | Compound NOT metabolized | Compound NOT metabolized | Compound NOT metabolized | Compound NOT metabolized | Compound metabolized | Compound metabolized | Compound metabolized | Compound NOT metabolized | Compound metabolized | Compound metabolized | Compound metabolized | Compound metabolized | Compound NOT metabolized | Compound metabolized | Compound NOT metabolized | Compound NOT metabolized
5 | O=C(O)c1cc(/N=N/c2ccc(S(=O)(=O)Nc3ccccn3)cc2)ccc1O [SULFASALAZINE] | Compound metabolized | Compound metabolized | Compound metabolized | Compound metabolized | Compound metabolized | Compound metabolized | Compound metabolized | Compound metabolized | Compound metabolized | Compound metabolized | Compound metabolized | Compound metabolized | Compound metabolized | Compound metabolized | Compound metabolized | Compound metabolized | Compound metabolized | Compound metabolized | Compound metabolized | Compound metabolized
6 | C=CC[C@@H]1/C=C(\C)C[C@H](C)C[C@H](OC)[C@H]2O[C@@](O)(C(=O)C(=O)N3CCCC[C@H]3C(=O)O[C@H](/C(C)=C/[C@@H]3CC[C@@H](O)[C@H](OC)C3)[C@H](C)[C@@H](O)CC1=O)[C@H](C)C[C@@H]2OC.O [TACROLIMUS] | Compound NOT metabolized | Compound NOT metabolized | Compound NOT metabolized | Compound NOT metabolized | Compound NOT metabolized | Compound NOT metabolized | Compound NOT metabolized | Compound metabolized | Compound NOT metabolized | Compound metabolized | Compound metabolized | Compound NOT metabolized | Compound NOT metabolized | Compound metabolized | Compound metabolized | Compound metabolized | Compound metabolized | Compound metabolized | Compound metabolized | Compound metabolized
7 | COc1ccc(CN2CCNCC2)c(OC)c1OC.Cl.Cl [TRIMETAZIDINE DIHYDROCHLORIDE] | Compound NOT metabolized | Compound NOT metabolized | Compound NOT metabolized | Compound NOT metabolized | Compound NOT metabolized | Compound NOT metabolized | Compound NOT metabolized | Compound NOT metabolized | Compound NOT metabolized | Compound NOT metabolized | Compound NOT metabolized | Compound NOT metabolized | Compound NOT metabolized | Compound NOT metabolized | Compound NOT metabolized | Compound NOT metabolized | Compound NOT metabolized | Compound NOT metabolized | Compound NOT metabolized | Compound NOT metabolized
